Measurements published in publication PMC11201828, “A Novel Dimeric Short Peptide Derived from α-Defensin-Related Rattusin with Improved Antimicrobial and DNA-Binding Activities” (Biomolecules, 2024).
Converted amounts (≈) assume the structure as drawn. Where two headings read alike, the source gives them in different places. Positions of bridges follow the written chain, without caps; N, C: chain ends. Residues, ends and D or L forms follow the SMILES beside them. Chains are numbered I, II in the order given. No end group written: not given here.

How the values were obtained:
[1] = system: MRSA CCARM 3089; format: cell-based, methicillin-resistant Staphylococcus aureus; conditions: CCARM 3089, 24 h
Method: (§1) The minimal inhibitory concentrations (MICs) of the peptides were determined following the broth microdilution method recommended by the Clinical and Laboratory Standards Institute (CLSI). Briefly, bacteria in their mid-logarithmic growth phase were diluted in Mueller–Hinton broth (MHB) (Difco, Franklin Lakes, NJ, USA) and aliquoted into a 96-well microtiter plate at a density of 4 × 10^6 CFU/well. The assay included both Gram-negative bacteria (Escherichia coli, Salmonella typhimurium, and Pseudomonas aeruginosa) and Gram-positive bacteria (Bacillus subtilis, Staphylococcus aureus, and Staphylococcus epidermidis), as well as methicillin-resistant Staphylococcus aureus strains (MRSA: CCARM 3089, CCARM 3090, CCARM 3095). The samples were subjected to a two-fold serial dilution before being added to the wells, and the plate was incubated at 37 °C for 24 h. The MIC was defined as the lowest peptide concentration that prevented visible bacterial growth. All experiments were conducted in triplicate and included appropriate growth and sterility controls.

[2] = system: MRSA CCARM 3090; format: cell-based, methicillin-resistant Staphylococcus aureus; conditions: CCARM 3090, 24 h
Method: as §1

[3] = system: MRSA CCARM 3095; format: cell-based, methicillin-resistant Staphylococcus aureus; conditions: CCARM 3095, 24 h
Method: as §1

[4] = system: Bacillus subtilis; format: cell-based; conditions: 24 h
Method: as §1

[5] = system: Escherichia coli; format: cell-based; conditions: 24 h
Method: as §1

[6] = system: Pseudomonas aeruginosa; format: cell-based; conditions: 24 h
Method: as §1

[7] = system: Salmonella typhimurium; format: cell-based; conditions: 24 h
Method: as §1

[8] = system: Staphylococcus aureus; format: cell-based; conditions: 24 h
Method: as §1

[9] = system: Staphylococcus epidermidis; format: cell-based; conditions: 24 h
Method: as §1

[10] = system: bacterial strains; format: cell-based; conditions: strain not given; see Tables 1 and 2
Method: as §1

[11] = system: S. aureus cytoplasmic membrane; assay: Membrane depolarization assay, DiSC3-(5) dye; format: cell-based, Staphylococcus aureus; conditions: intact S. aureus; 32 µM F2, 4 µM melittin, 16 µM buforin-2; peptide added after 300 s; Figure 2
Method: The cytoplasmic membrane depolarization activity of the peptides was assessed using the membrane-potential-sensitive dye DiSC3-(5), following methodologies previously described in the literature. Staphylococcus aureus was cultured in Luria–Bertani (LB) broth at 37 °C until reaching an optical density (O.D.) at 600 nm of 0.3–0.4, indicative of mid-logarithmic phase growth. The cells were then washed with a buffer containing 20 mM glucose and 5 mM HEPES, and the cell suspension was diluted to an O.D. 600 of 0.05 in the same buffer. Potassium chloride (KCl) was added to achieve a final concentration of 100 mM to equilibrate potassium ion levels. The concentrations used for each peptide in our membrane depolarization assays were based on their respective MICs: 32 µM for F2, 4 µM for Melittin, and 16 µM for Buferin-2.
Fluorescence was monitored using an F-4500 FL fluorescence spectrophotometer (Shimadzu, Kyoto, Japan) with excitation and emission wavelengths set at 622 nm and 670 nm, respectively. Melittin, known for its membrane-disrupting properties, served as a positive control, while buforin-2, which translocates across membranes without causing depolarization, acted as a negative control. Both melittin and buforin-2 were tested at concentrations twice their minimal inhibitory concentration (MIC) levels.

[12] = system: S. aureus cell membranes; assay: SYTOX Green uptake assay; format: cell-based, Staphylococcus aureus; conditions: 32 µM F2, 4 µM melittin, 16 µM buforin-2, Figure 3
Method: The membrane permeabilization activity of the peptides was determined using the SYTOX Green uptake assay, as described previously. S. aureus was cultured in LB broth at 37 °C until it reached an optical density (O.D.) at 600 nm of 0.4, indicative of the mid-logarithmic phase. The cells were then washed and diluted to an O.D. 600 of 0.05 using 1× PBS buffer. The dye (SYTOX Green nucleic acid stain) was added to the bacterial suspension at a concentration of […], and the mixture was incubated at 4 °C for 18 h with agitation in the dark. The SYTOX Green-treated bacteria were placed in a quartz cell, where they were simultaneously exposed to the positive control melittin (2× MIC), the negative control buforin-2 (2× MIC), and the F2 dimer (2× MIC). An F-4500 FL fluorescence spectrophotometer (Shimadzu, Kyoto, Japan) was used to monitor fluorescence (excitation 485 nm, emission 520 nm).

[13] = system: E. coli ML-35; assay: ONPG hydrolysis assay (inner membrane permeability); format: cell-based, Escherichia coli; conditions: 32 µM F2, 4 µM melittin, 16 µM buforin-2, Figure 4
Method: The internal membrane permeability was assessed using the ONPG hydrolysis assay, as described previously. E. coli ML-35p, which constitutively expresses cytoplasmic β-galactosidase and periplasmic β-lactamase, is resistant to ampicillin and deficient in lactose permease. E. coli ML-35 was incubated in LB broth containing ampicillin at 37 °C until the optical density (O.D.) at 600 nm reached 1.0. The cells were then washed with a buffer consisting of 97% 1× PBS and 3% LB and diluted to an O.D. 600 of 0.4 in the same buffer. A mixture of 50 μL of serially diluted peptide and 20 μL of dye (ONPG, final concentration 3 mM) was added to 100 μL of the bacterial suspension in a sterilized 96-well plate. Melittin served as a positive control, while buforin-2 was used as a negative control. The hydrolysis of ONPG was measured using a PHOMO Elisa reader (Autobio, Zhengzhou, China) at 405 nm for each time period.

[14] = system: plasmid DNA (pHIS2); assay: DNA-binding gel retardation assay; conditions: plasmid pHIS2 145 μg/mL, 37 °C, 1 h, 1% agarose gel; Figure 5
Method: We evaluated the DNA-binding ability of F2 and F2 (C4S) monomeric peptides using gel retardation experiments. The concentration of plasmid DNA (pHIS2) was fixed at 145 μg/mL. The peptide was serially diluted in a binding buffer consisting of 10 mM Tris-HCl (pH 8.0), 5% glucose, 50 μg/mL BSA, 1 mM EDTA, and 20 mM KCl. This solution was then mixed with the DNA and incubated at 37 °C for 1 h. After incubation, the DNA–peptide mixture was stained with DNA gel loading dye. The samples were analyzed using 1% agarose gel electrophoresis in 0.5× TAE buffer. Plasmid bands were detected with a UV illuminator (Bio-Rad, Hercules, CA, USA).

Molecule	MIC [1]	MIC [2]	MIC [3]	MIC [5]	MIC [8]	MIC [10]	further results
CC(C)[C@@H]1NC(=O)[C@H](CCCNC(=N)N)NC(=O)[C@H](CCCNC(=N)N)NC(=O)[C@H]([C@@H](C)O)NC(=O)[C@H](CC(N)=O)NC(=O)[C@H](CCCNC(=N)N)NC(=O)[C@@H](NC(=O)[C@@H](NC(=O)[C@H](CCCNC(=N)N)NC(=O)[C@@H](N)CCCNC(=N)N)C(C)C)CSSC[C@@H](C(=O)N[C@@H](CCCNC(=N)N)C(=O)N[C@@H](CC(N)=O)C(=O)N[C@H](C(N)=O)[C@@H](C)O)NC1=O [F2-AH] (H-RRVCRNTRRVCRNT-NH2; disulfide 4-11; N-terminus assumed)	29 µg/mL (≈ 16.2 µM)	29 µg/mL (≈ 16.2 µM)	58 µg/mL (≈ 32.5 µM)	15 µg/mL (≈ 8.39 µM)	29 µg/mL (≈ 16.2 µM)	15 µg/mL (≈ 8.39 µM)	MIC [4]: 29 µg/mL (≈ 16.2 µM); MIC [6]: 15 µg/mL (≈ 8.39 µM); MIC ([7]; murium): 15 µg/mL (≈ 8.39 µM); MIC [9]: 15 µg/mL (≈ 8.39 µM)
CC(C)[C@H](NC(=O)[C@@H]1CSSC[C@H](NC(=O)[C@@H](NC(=O)[C@H](CCCNC(=N)N)NC(=O)[C@@H](N)CCCNC(=N)N)C(C)C)C(=O)N[C@@H](CCCNC(=N)N)C(=O)N[C@@H](CC(N)=O)C(=O)N[C@@H]([C@@H](C)O)C(=O)N[C@@H]([C@@H](C)O)C(=O)N[C@@H](CC(N)=O)C(=O)N[C@@H](CCCNC(=N)N)C(=O)N1)C(=O)N[C@@H](CCCNC(=N)N)C(=O)N[C@@H](CCCNC(=N)N)C(N)=O [F2-PH] (H-RRVCRNTTNRCVRR-NH2; disulfide 4-11; N-terminus assumed)	29 µg/mL (≈ 16.2 µM)	58 µg/mL (≈ 32.5 µM)	29 µg/mL (≈ 16.2 µM)	15 µg/mL (≈ 8.39 µM)	29 µg/mL (≈ 16.2 µM)	15 µg/mL (≈ 8.39 µM)	MIC [4]: 29 µg/mL (≈ 16.2 µM); MIC [6]: 15 µg/mL (≈ 8.39 µM); MIC ([7]; murium): 15 µg/mL (≈ 8.39 µM); MIC [9]: 15 µg/mL (≈ 8.39 µM)
CC[C@H](C)[C@H](NC(=O)[C@@H]1CSSC[C@H](NC(=O)[C@H](CCC(N)=O)NC(=O)[C@@H](N)CC(C)C)C(=O)N[C@@H](CO)C(=O)N[C@H]2CSSC[C@H](NC(=O)[C@H]([C@@H](C)O)NC(=O)[C@H](CC(N)=O)NC(=O)[C@H](CCCNC(=N)N)NC(=O)[C@@H]3CSSC[C@H](NC(=O)[C@H](C(C)C)NC(=O)[C@H](CCCNC(=N)N)NC(=O)[C@H](CCCNC(=N)N)NC2=O)C(=O)N[C@@H](CCCNC(=N)N)C(=O)N[C@@H](CC(N)=O)C(=O)N[C@@H]([C@@H](C)O)C(=O)N[C@H]2CSSC[C@H](NC(=O)[C@H](CO)NC(=O)[C@@H](NC(=O)[C@H](CCC(N)=O)NC(=O)[C@@H](N)CC(C)C)CSSC[C@@H](C(=O)N[C@H](C(=O)N[C@@H](CCCNC(=N)N)C(N)=O)[C@@H](C)CC)NC(=O)[C@H](CO)NC2=O)C(=O)N[C@@H](CCCNC(=N)N)C(=O)N[C@@H](CCCNC(=N)N)C(=O)N[C@@H](C(C)C)C(=O)N3)C(=O)N[C@@H](CO)C(=O)N1)C(=O)N[C@@H](CCCNC(=N)N)C(N)=O [F4] (I: H-LQCSCRRVCRNTCSCIR-NH2 / II: H-LQCSCRRVCRNTCSCIR-NH2; disulfide I:3-II:15, I:5-II:13, I:9-II:9, I:13-II:5, I:15-II:3 (inferred); N-terminus assumed)	–	–	–	32 µg/mL (≈ 8.02 µM)	64 µg/mL (≈ 16 µM)	–	–
CC[C@H](C)[C@H](NC(=O)CN)C(=O)NCC(=O)N[C@@H](C)C(=O)N[C@H](C(=O)N[C@@H](CC(C)C)C(=O)N[C@@H](CCCCN)C(=O)N[C@H](C(=O)N[C@@H](CC(C)C)C(=O)N[C@H](C(=O)N[C@H](C(=O)NCC(=O)N[C@@H](CC(C)C)C(=O)N1CCC[C@H]1C(=O)N[C@@H](C)C(=O)N[C@@H](CC(C)C)C(=O)N[C@H](C(=O)N[C@@H](CO)C(=O)N[C@@H](Cc1c[nH]c2ccccc12)C(=O)N[C@H](C(=O)N[C@@H](CCCCN)C(=O)N[C@@H](CCCNC(=N)N)C(=O)N[C@@H](CCCCN)C(=O)N[C@@H](CCCNC(=N)N)C(=O)N[C@@H](CCC(N)=O)C(=O)N[C@@H](CCC(N)=O)C(N)=O)[C@@H](C)CC)[C@@H](C)CC)[C@@H](C)O)[C@@H](C)O)C(C)C)C(C)C [Melittin]	–	–	–	–	–	–	cytoplasmic membrane depolarization (DiSC3-(5) fluorescence) [11]: complete depolarization; SYTOX Green uptake (fluorescence intensity) [12]: significant increase in fluorescence intensity; ONPG hydrolysis (absorbance at 405 nm) [13]: change in absorbance
Buforin-2	–	–	–	–	–	–	cytoplasmic membrane depolarization (DiSC3-(5) fluorescence) [11]: failed to induce any change in membrane potential; SYTOX Green uptake (fluorescence intensity) [12]: did not show a similar increase in fluorescence intensity; ONPG hydrolysis (absorbance at 405 nm) [13]: did not alter the absorbance; peptide concentration giving DNA band retardation [14]: 2 µM
IRLSRSTYAS-NH2 [F3]	–	–	–	>590 µg/mL	>590 µg/mL	> 590 µg/mL	–
LRVRRTLQ-NH2 [F1]	–	–	–	67 µg/mL	>500 µg/mL	–	–
RRVSRNT-NH2 [F2 (C15S)]	>114 µg/mL	>114 µg/mL	>114 µg/mL	–	–	> 227 µg/mL	peptide concentration giving DNA band retardation [14]: > 16 µM; MIC ([4]; Bacillus subtilis, broth microdilution, MHB, 37 °C, triplicate): >227 µg/mL; MIC ([5]; Escherichia coli, broth microdilution, MHB, 4 × 10^6 CFU/well, 37 °C, triplicate, no deviations): >227 µg/mL; MIC ([6]; Pseudomonas aeruginosa, broth microdilution, MHB, 37 °C, triplicate): >227 µg/mL; MIC ([7]; Salmonella typhimurium, broth microdilution, MHB, 37 °C, triplicate): >227 µg/mL; MIC ([8]; Staphylococcus aureus, broth microdilution, MHB, 37 °C, triplicate): >227 µg/mL; MIC ([9]; Staphylococcus epidermidis, broth microdilution, MHB, 37 °C, triplicate): >227 µg/mL
